# Experimental data reported in patent publication US20070212428A1, “METHODS AND COMPOSITIONS FOR TREATING MOOD DISORDER” (MOOD MANAGEMENT SCIENCES, INC., priority 2004, published 2007).
# Structures can show the parent of a compound that is named as a salt. Where two headings read alike, the source gives them in different places.
# What was measured:
# [1] = cited from earlier work; for time to peak plasma concentration: after oral dosing
# [2] = system: Dysthymia; assay: Example 10: case, dysthymia with general anxiety disorder; conditions: earlier treatment with 40 mg
# [3] = system: muscarinic, histaminergic, or a-l adrenergic receptors; conditions: in vitro; cited from earlier work
# [4] = system: norepinephrine neuronal reuptake; conditions: cited from earlier work
# [5] = cited from earlier work
# [6] = system: dopamine neuronal reuptake; conditions: cited from earlier work
# [7] = system: neuronal serotonin reuptake; conditions: cited from earlier work
# [8] = system: dopaminergic, adrenergic, cholinergic, or histaminergic receptors; conditions: in vitro; cited from earlier work
# [9] = system: monoamine oxidase; conditions: cited from earlier work
# [10] = system: human plasma proteins; conditions: cited from earlier work
# [11] = system: Dysthymia; assay: Example 12: method for treating Dysthymia (a person); type: in vivo, human; conditions: 10 years prior; 60 mg fluvoxamine, 40 mg paroxetine
# [12] = human, in vivo; cited from earlier work
# [13] = co-administered with venlafaxine
# [14] = 30 mg oral dose, over a 10 day period
structure (smiles),measurement,setting,value
"CN(C)CCCC1(c2ccc(F)cc2)OCc2cc(C#N)ccc21 (racemic) [citalopram, (±)-1-[3-(dimethylamino)propyl]-1-(4-fluorophenyl)-1,3-dihydro-5-isobenzofuran carbonitrile, hydrobromide]",time to peak plasma concentration,[1],four
same,time to steady state plasma concentrations,[1]; daily dosing,a week
same,increase of half life in elderly patients,[1],23-50%
same,elimination half-life,[1]; plasma,about 35 hours
"CNCCC(Oc1ccc(C(F)(F)F)cc1)c1ccccc1.Cl (racemic) [fluoxetine, (±)-N-methyl-3-phenyl-[(α,α,α-trifluoro-p-tolyl)oxyl]propylamine hydrochloride]",effect on depressive symptoms,[2],decreased depressive symptoms
same,adverse effect,[2]; subsequently discontinued,“dulled” the patient cognitively
same,half life,[1]; following acute administration,24 to 72 h
"COc1ccc(C(CN(C)C)C2(O)CCCCC2)cc1.Cl (racemic) [venlafaxine, (R/S)-1-[2-(dimethylamino)-1-(4-methoxyphenyl)ethyl] cyclohexanol hydrochloride]",affinity,[3],not significant affinity
same,effect on norepinephrine reuptake (in words),[4],potent inhibitors
same,steady-state pharmacokinetics,"[5]; venlafaxine 150 mg/day with a single 600 mg oral dose of lithium, 12 healthy males",unaffected
same,oral absorption (in words),[1]; oral administration,well absorbed
same,elimination half-life,[1]; plasma,3 to 7 h
same,fraction renally excreted within 48 hours,[1]; single dose,87%
same,effect on dopamine reuptake (in words),[6],weak inhibitors
NC(=O)N1c2ccccc2CC(O)c2ccccc21 (centres unmarked) [MHD],elimination half-life,"[1]; human, in vivo",about 9 hours
"CN(C)CC(c1ccc(O)cc1)C1(O)CCCCC1 (centres unmarked) [ODV, O-desmethylvenlafaxine]",affinity,[3],not significant affinity
same,inhibition of serotonin reuptake (in words),[7],potent inhibitors
same,effect on norepinephrine reuptake (in words),[4],potent inhibitors
same,elimination half-life,"[1]; human, in vivo",9 to 13 h
same,effect on dopamine reuptake (in words),[6],weak inhibitors
"Clc1ccc2c(c1)C(N1CCNCC1)=Nc1ccccc1O2 [amoxapine, 2-Chloro-11-(1-piperazinyl)dibenz-[b,f][1,4]oxazepine]",time to peak plasma concentration,[1],approximately 90 minutes
same,oral absorption (in words),[1]; oral administration,absorbed rapidly
"CN(C)CCCN1c2ccccc2Sc2ccc(Cl)cc21 [chlorpromazine, 10-(3-dimethylaminopropyl)-2-chlorphenothiazine]",oral absorption (in words),[1]; oral administration,readily absorbed
same,elimination half-life,[1]; plasma,approximately 30 hours
O=c1ccc2ccc(OCCCCN3CCN(c4cccc(Cl)c4Cl)CC3)cc2[nH]1 [dehydro-aripiprazole],pharmacokinetics,[5]; lithium (1200-1800 mg/day) for 21 days with aripiprazole (30 mg/day),did not result in clinically significant changes
"CNCC[C@H](Oc1cccc2ccccc12)c1cccs1.Cl [duloxetine, (+)-(S)-N-methyl-γ-(1-naphthyloxy)-2-thiophenepropylamine hydrochloride]",affinity,[8],no significant affinity
same,inhibition of monoamine oxidase,[9],does not inhibit
"CN(C)CCC[C@@]1(c2ccc(F)cc2)OCc2cc(C#N)ccc21 [escitalopram, S-(+)-1-[3-(dimethylamino)propyl]-1-(p-fluorophenyl)-5-phthalancarbonitrile oxalate]",binding to human plasma proteins,[10],approximately 56%
same,effect on norepinephrine reuptake (in words),[4],minimal effects
same,time to peak plasma concentration,[1],about 5 hours
same,time to steady state plasma concentrations,[1]; daily dosing,a week
same,increase of half life in elderly patients,[1],approximately 50%
same,elimination half-life,[1]; plasma,27 to 32 h
same,effect on dopamine reuptake (in words),[6],minimal effects
COCCCC/C(=N\OCCN)c1ccc(C(F)(F)F)cc1 [fluvoxamine],outcome of prior antidepressant trials,[11],unsuccessfully
"O=C(CCCN1CCC(O)(c2ccc(Cl)cc2)CC1)c1ccc(F)cc1 [haloperidol, 4-[4-(p-chlorophenyl)-4-hydroxypiperidino]-4′-fluorobutyrophenone]",half life,[5]; [13],unchanged
same,increase of peak plasma concentration (Cmax),[5]; [13],88%
same,increase in the area under the plasma concentration curve,[5]; single 2 mg dose of haloperidol with venlafaxine 150 mg/day,70%
same,time to peak plasma level,[1]; after i.m. injection,about 20 minutes
"CC[C@@H](C(N)=O)N1CCCC1=O [levetiracetam, (−)-(S)-α-ethyl-2-oxo-1-pyrrolidine acetamide]",time to peak plasma concentration,[1],about an hour
same,reduction of clearance,[1]; moderate renal impairment,50%
same,oral absorption (in words),[1]; oral administration,rapidly and almost completely absorbed
same,elimination half-life,[1]; plasma,approximately 7 hours
same,reduction of clearance,[1]; severe renal impairment,60%
[Li] [lithium],AUC and peak plasma concentrations of lithium,[5]; co-administered with risperidone,unaffected
same,kinetics of lithium,[5]; multiple doses of olanzapine (10 mg for 8 days),did not influence
same,steady state kinetics of lithium,"[5]; valproate (500 mg BID) with lithium carbonate (300 mg TID), normal male volunteers",not effect
same,steady-state pharmacokinetic parameters of lithium,[5]; with quetiapine (250 mg TID),no effect
same,steady-state pharmacokinetics of lithium,[5]; with venlafaxine,unaffected
same,steady state level and renal clearance of lithium,[5]; ziprasidone (40 mg BID) with lithium (450 mg BID for 7 days),not affected
same,CSF lithium level at equilibration relative to the plasma concentration,"[1]; human, in vivo",approximately half
same,fraction eliminated with the feces,"[1]; human, in vivo",less than 1%
same,fraction of a single dose eliminated in urine,"[1]; human, in vivo",Approximately 95%
same,fraction of a single dose excreted in 24 hours,"[1]; human, in vivo",About 50%
same,fraction of the filtered lithium reabsorbed in the tubules,"[1]; human, in vivo",80%
same,oral absorption (in words),[1]; oral administration,rapidly absorbed
same,time to steady state plasma concentrations,[1]; repeated dosing,five to six
"CN1CCN(C2=Nc3ccccc3Oc3ccc(Cl)cc32)CC1 [loxapine succinate, 2-Chloro-11-(4-methyl-1-piperazinyl)dibenz[b,f][1,4]oxazepine]",oral absorption (in words),[1]; oral administration,virtually complete
same,time of excretion,[1]; oral administration,mainly in the first 24 hours
"CNCCCC12CCC(c3ccccc31)c1ccccc12 [maprotiline, N-Methyl-9,10-ethanoanthracene-9(10H)-propanamine]",oral absorption (in words),[1]; oral administration,completely absorbed
"NC(=O)C[S+]([O-])C(c1ccccc1)c1ccccc1 (centres unmarked) [modafinil, 2-[(diphenylmethyl)sulfinyl]acetamide]",time to peak plasma concentration,[1],2 to 4 h
same,oral absorption (in words),[1]; oral administration,rapid
"CCc1nn(CCCN2CCN(c3cccc(Cl)c3)CC2)c(=O)n1CCOc1ccccc1 [nefazodone, 2-[3-[4-(3-chlorophenyl)-1-piperazinyl]propyl]-5-ethyl-2,4-dihydro-4-(2-phenoxyethyl)-3H-,1,2,4-triazo-3-one monohydrochloride]",elimination half-life,[1]; plasma,2 to 4 h
"NC(=O)N1c2ccccc2CC(=O)c2ccccc21 [oxcarbazepine, 10,11-dihydro-10-oxo-5H-dibenzo[b,f]azepine-5-carboxamide]",elimination half-life,[1]; plasma,about 2 hours
same,tolerability of dose,[12],not be able to tolerate
"Fc1ccc([C@@H]2CCNC[C@H]2COc2ccc3c(c2)OCO3)cc1 [paroxetine, (−)-trans-4R-(4′-fluorophenyl)-3S-[(3′,4′-methylenedioxyphenloxy)methyl]piperidine hydrochloride hemihydrate]",effect on norepinephrine reuptake (in words),[4],only very weak effects
same,fraction of dose renally excreted,[1]; [14],Approximately 64%
same,fraction of dose renally excreted as metabolites,[1]; [14],62%
same,fraction of dose renally excreted as the parent compound,[1]; [14],2%
same,fraction of dose excreted in the feces,[1]; 30 mg oral dose,36%
same,oral absorption (in words),[1]; oral administration,completely absorbed
same,time to steady state plasma concentrations,[1]; repeated dosing,approximately 10 days
same,effect on dopamine reuptake (in words),[6],only very weak effects
same,outcome of prior antidepressant trials,[11],unsuccessfully
"NNCCc1ccccc1 [phenelzine sulfate, (2-phenethyl)hydrazine]",time to peak plasma concentration,[1],0.717 h
same,elimination half-life,[1]; plasma,11.6 h
same,inhibition of monoamine oxidase,[9],potent inhibitor
"CSc1ccc2c(c1)N(CCC1CCCCN1C)c1ccccc1S2 (centres unmarked) [thioridazine, 2-methylmercapto-10-[2-(N-methyl-2-piperidyl)ethyl]phenothiazine]",elimination half-life,[1]; plasma,approximately 10 hours
"CC1(C)O[C@@H]2[C@@H](CO[C@@]3(COS(N)(=O)=O)OC(C)(C)O[C@@H]23)O1 [topiramate, 2,3:4,5-Di-O-isopropylidene-β-D-fructopyranose sulfamate]",time to peak plasma concentration,[1],approximately 2 hours
same,reduction of clearance,[1]; moderate renal impairment,42%
same,oral absorption (in words),[1]; oral administration,rapid
same,time to steady state plasma concentrations,[1]; repeated dosing,about 4 days
same,reduction of clearance,[1]; severe renal impairment,54%
"O=c1n(CCCN2CCN(c3cccc(Cl)c3)CC2)nc2ccccn12 [trazodone, 2-[3-[4-(3-chlorophenyl)-1-piperazinyl]propyl]-1,2,4-triazolo[4,3-a]pyridin-3(2H)-one]",time to peak plasma levels,[1]; taken with food,two
"CCCC(CCC)C(=O)O [valproate, sodium hydrogen bis(2-propylpentanoate)]",effect on each drug's metabolism,[5]; olanzapine co-administered with valproate,little effect
"NS(=O)(=O)Cc1noc2ccccc12 [zonisamide, 1,2-benzisoxazole-3-methanesulfonamide]",time to peak plasma concentration,[1],2 to 6 h
same,elimination half-life,[1]; plasma,about 63 hours
same,elimination half-life in RBC,[1]; red blood cells,approximately 105 hours
same,time to steady state plasma concentrations,[1]; repeated dosing,≤ 14 days
